In patent US4536335A, “Carbapenem antibiotics” (Bristol-Myers Company, priority 1983, dated 1985):
≈ marks a conversion by molar mass, not a printed value. Like-named read-outs stand apart in the source and are kept apart here.

Assays:
P. aeruginosa A21213 = assay: In vitro MIC, tube dilution; type: cell-based; settings: Pseudomonas aeruginosa, A21213, tube dilution, Nutrient Broth, overnight incubation at 37° C.
[1] = Urinary recovery after intramuscular administration to mice; type: in vivo; settings: mouse, urine, im, 20 mg/kg, mice, i.m. 20 mg/kg
Method: Compounds were solubilized in 0.1 M phosphate buffer pH 7. Values are from a single test; 4 mice per compound.
(§1) Also shown is the urinary recovery in the mice.
***Recovery based on 0-6 hour collection

B. fragilis A22053 = assay: In vitro MIC, tube dilution; type: cell-based; settings: Bacteroides fragilis, Nutrient Broth, overnight incubation at 37° C.
Description: (§2) N-Formimidoyl thienamycin was included as a comparison compound.

B. fragilis A22696 = assay: In vitro MIC, tube dilution; type: cell-based; settings: Bacteroides fragilis, Nutrient Broth, overnight incubation at 37° C.
Description: as §2

B. fragilis A22863 = assay: In vitro MIC, tube dilution; type: cell-based; settings: Bacteroides fragilis, Nutrient Broth, overnight incubation at 37° C.
Description: as §2

E. cloacae A-9569 = assay: In vitro MIC, tube dilution; type: cell-based; settings: Enterobacter cloacae, A9569, Nutrient Broth, overnight incubation at 37° C.
Description: as §2

B. fragilis A22862 = assay: In vitro MIC, tube dilution; type: cell-based; settings: Bacteroides fragilis, Nutrient Broth, overnight incubation at 37° C.
Description: as §2

P. mirabilis A-9900 [2] = assay: Protective effect in the intramuscular treatment of infected mice (PD50); type: in vivo; settings: Proteus mirabilis, A9900, im, read-out: PD50/Treatment, P. mirabilis A-9900
Method: (§3) Treatment Schedule: Mice were treated i.m. with drugs 0 and 2 hours post-infection; 5 mice per dose were used for each test

S. faecalis A20688 = assay: In vitro MIC, tube dilution; type: cell-based; settings: Enterococcus faecalis, A20688, tube dilution, Nutrient Broth, overnight incubation at 37° C.
[3] = Blood levels in mice after intramuscular administration; type: in vivo; settings: mouse, blood, im, mice, i.m. 20 mg/kg
Description: Compounds were solubilized in 0.1 M phosphate buffer pH 7. Values are fro
a single test; 4 mice used per compound.
*t1/2 refers to halflife in minutes
**AUC refers to the area under the blood concentrationtime curve
as §1
Compounds were solubilized in 0.1 M phosphate buffer, pH 7.
Values based on a single test; 4 mice per compound.
*T1/2 refers to halflife in minutes

[4] = system: S. aureus A-9606 (Pen-res.); assay: In vitro MIC, tube dilution; type: cell-based; settings: Staphylococcus aureus, Nutrient Broth, overnight incubation at 37° C., read-out: MIC S. aureus A-9606 (Pen-res.)
E. coli A15119 = assay: In vitro MIC, tube dilution; type: cell-based; settings: Escherichia coli, A15119, tube dilution, Nutrient Broth, overnight incubation at 37° C.
P. aeruginosa A-9843a [5] = assay: Protective effect in the intramuscular treatment of infected mice (PD50); type: in vivo; settings: Pseudomonas aeruginosa, A9843A, im; mice, challenge 3 × 10^6 organisms, treated i.m. 0 and 2 hours post-infection; read-out: PD50/Treatment, P. aeruginosa A-9843a
Method: The PD50 (dose in mg/kg required to give protection to 50% of the infected mice) is indicated.
as §3
*For compound of Ex. 2, mice were infected i.p. with 2 × 10^9
compounds of Ex. 4 and 5, mice were infected i.p. with ~9 ×
were treated i.m. with drugs 0 and 2 h postinfection.

K. pneumoniae A-9664 = assay: In vitro MIC, tube dilution; type: cell-based; settings: Klebsiella pneumoniae, A9664, tube dilution, Nutrient Broth, overnight incubation at 37° C.
P. vulgaris A21559 = assay: In vitro MIC, tube dilution; type: cell-based; settings: Proteus vulgaris, A21559, tube dilution, Nutrient Broth, overnight incubation at 37° C.
P. morganii A15153 = assay: In vitro MIC, tube dilution; type: cell-based; settings: Morganella morganii, A15153, tube dilution, Nutrient Broth, overnight incubation at 37° C.; read-out: MIC P. morganii A15153
[6] = Toxicity after intracranial administration to mice; settings: mouse, in vivo
Description: | *Average of 25/mice/compound

E. coli A20341-1 = assay: In vitro MIC, tube dilution; type: cell-based; settings: Escherichia coli, A203411, tube dilution, Nutrient Broth, overnight incubation at 37° C.
P. aeruginosa A-9843A [7] = assay: In vitro MIC, tube dilution; type: cell-based; settings: Pseudomonas aeruginosa, A9843A, Nutrient Broth, overnight incubation at 37° C.
P. rettgeri A22424 = assay: In vitro MIC, tube dilution; type: cell-based; settings: Providencia rettgeri, A22424, tube dilution, Nutrient Broth, overnight incubation at 37° C.
P. mirabilis A-9900 [8] = assay: In vitro MIC, tube dilution; type: cell-based; settings: Proteus mirabilis, A9900, tube dilution, Nutrient Broth, overnight incubation at 37° C.
K. pneumoniae A20468 = assay: In vitro MIC, tube dilution; type: cell-based; settings: Klebsiella pneumoniae, A20468, tube dilution, Nutrient Broth, overnight incubation at 37° C.
S. marcescens A20019 = assay: In vitro MIC, tube dilution; type: cell-based; settings: Serratia marcescens, A20019; tube dilution, Nutrient Broth, overnight incubation at 37° C.
S. aureus A-9537 = assay: In vitro MIC, tube dilution; type: cell-based; settings: Staphylococcus aureus, overnight incubation at 37° C.
S. pyogenes A-9604 = assay: In vitro MIC, tube dilution; type: cell-based; settings: Streptococcus pyogenes, A9604, tube dilution, Nutrient Broth, overnight incubation at 37° C.
S. pneumoniae A-9585 = assay: In vitro MIC, tube dilution; type: cell-based; settings: Streptococcus pneumoniae, A9585, Nutrient Broth, overnight incubation at 37° C.
E. cloacae A-9656 = assay: In vitro MIC, tube dilution; type: cell-based; settings: Enterobacter cloacae, A9656; tube dilution, Nutrient Broth, overnight incubation at 37° C.
[9] = system: various Pseudomonas species; settings: prior art description; cited from earlier work

Compound: C[C@@H](O)[C@H]1C(=O)N2C(C(=O)[O-])=C(SCC[N+]3(C)CCCC3)C[C@H]12 [Example 1, 3-[2-(N-methylpyrrolidinium)ethylthio]-6α-[1-(R)-hydroxyethyl]-7-oxo-1-azabicyclo [3.2.0]hept-2-ene-2-carboxylate]
- MIC (P. aeruginosa A21213): 0.25 µg/mL (≈ 0.734 µM)
- dose excreted at 3 h ([1]; 0-3 hours after administration, read-out: Percentage of Dose Recovered in urine, 0-3 hours): 18.8%
- dose excreted at 24 h ([1]; 0-24 hours after administration, read-out: Percentage of Dose Recovered in urine, 0-24 hours): 19.5 ± 3.2%
- dose excreted at 6 h ([1]; 3-6 hours after administration, read-out: Percentage of Dose Recovered in urine, 3-6 hours): 0.6%
- dose excreted at 24 h ([1]; 6-24 hours after administration, read-out: Percentage of Dose Recovered in urine, 6-24 hours): 0.1%
- MIC (B. fragilis A22053): 0.25 µg/mL (≈ 0.734 µM)
- MIC (B. fragilis A22696): 0.5 µg/mL (≈ 1.47 µM)
- MIC (B. fragilis A22863): 0.13 µg/mL (≈ 0.382 µM)
- MIC (E. cloacae A-9569): 0.25 µg/mL (≈ 0.734 µM)
- MIC (B. fragilis A22862): 0.13 µg/mL (≈ 0.382 µM)
- ED50 (P. mirabilis A-9900 [2]): > 10 mg/kg
- MIC (S. faecalis A20688): 1 µg/mL (≈ 2.94 µM)
- AUC ([3]; 20 mg/kg, Example 1 table, read-out: AUC (area under the blood concentration-time curve)): 5400 ng·h/mL
- half-life ([3]; 20 mg/kg, Example 1 table, read-out: t1/2 (half-life in blood)): 11 min
- concentration at 10 min ([3]; 10 min, read-out: Blood Level 10 minutes after administration): 13700 ng/mL
- concentration at 20 min ([3]; 20 min, read-out: Blood Level 20 minutes after administration): 10200 ng/mL
- concentration at 0.5 h ([3]; 30 min, read-out: Blood Level 30 minutes after administration): 5700 ng/mL
- concentration at 0.75 h ([3]; 45 min, read-out: Blood Level 45 minutes after administration): 2100 ng/mL
- concentration at 1 h ([3]; 60 min, read-out: Blood Level 60 minutes after administration): < 600 ng/mL
- concentration at […] ([3]; 90 min, read-out: Blood Level 90 minutes after administration): < 600 ng/mL
- MIC [4]: 0.016 µg/mL (≈ 0.047 µM)
- MIC (E. coli A15119): 0.03 µg/mL (≈ 0.0881 µM)
- ED50 (P. aeruginosa A-9843a [5]): 3 mg/kg
- MIC (K. pneumoniae A-9664): 0.06 µg/mL (≈ 0.176 µM)
- MIC (P. vulgaris A21559): 0.03 µg/mL (≈ 0.0881 µM)
- MIC (P. morganii A15153): 0.13 µg/mL (≈ 0.382 µM)
- NOAEL [6]: > 10 mg/kg
- LD50 ([6]; intracranial administration to mice, average of 25 mice/compound): > 10 mg/kg
- MIC (E. coli A20341-1): 0.03 µg/mL (≈ 0.0881 µM)
- MIC (P. aeruginosa A-9843A [7]): 4 µg/mL (≈ 11.7 µM)
- MIC (P. rettgeri A22424): 0.25 µg/mL (≈ 0.734 µM)
- MIC (P. mirabilis A-9900 [8]): 0.13 µg/mL (≈ 0.382 µM)
- MIC (K. pneumoniae A20468): 0.13 µg/mL (≈ 0.382 µM)
- MIC (S. marcescens A20019): 0.06 µg/mL (≈ 0.176 µM)
- MIC (S. aureus A-9537; A9537, + 50% serum, tube dilution, read-out: MIC S. aureus + 50% serum A-9537): 0.016 µg/mL
- MIC (S. aureus A-9537; A9537, tube dilution, Nutrient Broth, read-out: MIC S. aureus A-9537): 0.008 µg/mL (≈ 0.0235 µM)
- MIC (S. pyogenes A-9604): 0.002 µg/mL (≈ 0.00587 µM)
- MIC (S. pneumoniae A-9585): 0.002 µg/mL (≈ 0.00587 µM)
- MIC (E. cloacae A-9656): 0.13 µg/mL (≈ 0.382 µM)

Compound: C[C@@H](O)[C@H]1C(=O)N2C(C(=O)O)=C(SCCN)C[C@H]12 [Thienamycin, thienamycin]
- activity against various Pseudomonas species [9]: notable activity
